Reference: patent USRE39707E1, “Camptothecin derivatives” (Catholic Healthcare West, priority 2001, dated 2007)
Where two headings read alike, the source gives them in different places. Marks after values point to notes of the source that are not given here.

What was measured:
HCT116 = assay: Cell colony formation assay, HCT116 cells; type: cell-based, human; conditions: 72 hours drug exposure
Protocol: (§1) This example provides directions for growing cells and testing compounds of the invention for their effect on the growth of the cells. All cells were purchased from DCIDC Tumor Repository, NCI, NIH.
The cells were incubated in a CO2 incubator at 37° C. for 5 hours for attachment to the bottom of Petri dishes. Drugs were made fresh in medium at ten times the final concentration, and then 0.3 ml of this stock solution was added to the 2.7 ml of medium in the dish. The cells were then incubated with drugs for 72 hours at 37° C. At the end of the incubation the drug-containing media were decanted, the dishes were rinsed with 4 ml of Hank's Balance Salt Solution (HBSS), 5 ml of fresh medium was added, and the dishes were returned to the incubator for colony formation. The cell colonies were counted using colony counter after incubation for 7 days for HCT116 cells and PC-3 cells and 8 days for VM46 cells, respectively.

VM46 = assay: Cell colony formation assay, VM46 cells; type: cell-based; conditions: 72 hours drug exposure
Protocol: as §1
(§2) Four hundred cells (HCT 116, PC-3, NCI/ADR-RES: human breast cancer cells) or five hundred cells (VM46) were plated in 60 mm Petri dishes containing 2.7 ml of medium (modified McCoy's 5a medium) containing 10% fetal bovine serum and 100 units/ml penicillin and […] streptomycin. The cells were incubated in a CO2 incubator at 37° C. for 5 hours for attachment to the bottom of Petri dishes. Drugs were made fresh in medium at ten times the final concentration, and then 0.3 ml of this stock solution was added to the 2.7 ml of medium in the dish. The cells were then incubated with drugs for 72 hours at 37° C. At the end of the incubation the drug-containing media were decanted, the dishes were rinsed with 4 ml of Hank's Balance Salt Solution (HBSS), 5 ml of fresh medium was added, and the dishes were returned to the incubator for colony formation. The cell colonies were counted using colony counter after incubation for 7 days for HCT116 cells and PC-3 cells and 8 days for VM46 cells, respectively.
(§3) Values of ID50 (the drug concentration producing 50% inhibition of colony formation) may be determined for each tested compound. The directions described in this example may be used in other cells, such as DU-145.

C3H/HeJ mice = system: C3H/HeJ mice
Protocol: This example provides directions for performing in vivo toxicity tests of the compounds of the invention on C3H/HeJ mice.
Acute toxicities of the compounds of this invention are evaluated on C3H/HeJ mice (body weight 18-22 g). The MTD40 (maximum tolerated dose at day 40) values were determined by the standard procedure described by Gad and Chengelis (see, for example, “Acute Toxicology Testing,” 2nd Ed., Shayne O. Gad and Christopher P. Chengelis, pp. 186-195 (Academic Press)). In the consecutive type studies, 2 mice were dosed at low and moderate doses of 40 and 100 mg/kg. If no severe and irreversible toxicity (euthanasia is required) occurs at these doses, a new pair of animals was initiated at 180 mg/kg, which is 1.8 times higher than 100 mg/kg. Sequential dosages (about 3 doses on 3 pairs of animals, i.e. 2 mice for each drug dose) were increased by a factor of 1.8 until severe and irreversible toxicity (euthanasia is required) occurred. Then another pair of animals was initiated at the highest nonlethal dosage, and successive dosages were increased by a factor of 1.15. The result of this exercise was two dosages, one apparently nonlethal and the other lethal if severe and irreversible toxicity occurs and euthanasia is required, separated by a factor of 1.15. Six mice were dosed at each dosage. If no severe and irreversible toxicity occurred at the lower dosage and at least one with severe and irreversible toxicity occurred at the higher dose, then the lower dose was considered to be the MTD. The compounds of this invention were administered to C3H/HeJ mice by intraperitoneal injection. Drug toxicity was evaluated on mice checked daily for 45 days.

PC-3 = assay: Cell colony formation assay, PC-3 cells; type: cell-based, human; conditions: 72 hours drug exposure
Protocol: as §1, §2, §3

[1] = maximum tolerated dose at day 40, C3H/HeJ mice

| Compound | In Vitro Efficacy: Survival (%) of HCT116 (HCT116; 10 nM) | In Vitro Efficacy: Survival (%) of HCT116 (HCT116; 100 nM) | In vitro efficacy: Survival (%) of cells line VM46 (VM46; 1 nM) | In vitro efficacy: Survival (%) of cells line VM46 (VM46; 10 nM) | In Vivo Toxicity MTD40 (ip, mg/kg) in C3H/Hej Mice (C3H/HeJ mice; [1]) | In Vitro Efficacy: Survival (%) of HCT116 (HCT116; 1 nM) | In vitro efficacy: Survival (%) of cells line PC-3 (PC-3; 1 nM) | In vitro efficacy: Survival (%) of cells line PC-3 (PC-3; 5 nM) | In Vivo Toxicity MTD40 (ip, mg/kg) in C3H/Hej Mice (C3H/HeJ mice; mouse, in vivo) |
| --- | --- | --- | --- | --- | --- | --- | --- | --- | --- |
| CCc1c2c(nc3ccc(OC(=O)N4CCC(N5CCCCC5)CC4)cc13)-c1cc3c(c(=O)n1C2)COC(=O)[C@]3(O)CC [CPT 11, 7-ethyl-10[4-(1-piperidino)-1-piperidino]carbonyloxy CPT, reference compound] | 100% | 90.52% |  |  |  |  |  |  |  |
| CC[C@@]1(O)C(=O)OCc2c1cc1n(c2=O)Cc2cc3ccccc3nc2-1 [CPT, (S)-4-ethyl-4-hydroxy-1H-pyrano-[3′,4′:6,7]indolizino[1,2-b]quinoline-3,14(4H,12H)-dione, reference compound] | 73.72% |  | 77.64% | 0% | <20** mg/kg | 100% | 93.85% | 33.09% |  |
| CCC1(OC(=O)COc2ccc(OC)cc2)C(=O)OCc2c1cc1n(c2=O)Cc2cc3ccccc3nc2-1 (stereo not shown) [Example 000314, Camptothecin-20-O-ester of 4-methoxyphenoxyacetic acid] |  | 0% |  |  | >150 mg/kg |  |  |  |  |
| CCCCOCC(=O)OC1(CC)C(=O)OCc2c1cc1n(c2=O)Cc2cc3ccccc3nc2-1 (stereo not shown) [Example 000316, Camptothecin-20-O-ester of butyloxyacetic acid] | 0% | 0% | 77.50% | 0% | <150 mg/kg | 100% | 85.72% | 54.79% |  |
| CCC1(OC(=O)COc2ccc(C(C)C)cc2)C(=O)OCc2c1cc1n(c2=O)Cc2cc3ccccc3nc2-1 (stereo not shown) [Example 000418, Camptothecin-20-O-ester of 4-isopropylphenoxyacetic acid] | 0% | 0% | 79.17% | 0% | >150 mg/kg | 97.56% | 100% | 78.12% |  |
| CCC1(OC(=O)COc2ccc(Cl)cc2)C(=O)OCc2c1cc1n(c2=O)Cc2cc3ccccc3nc2-1 (stereo not shown) [Example 000517, Camptothecin-20-Oester of 4-chlorophenoxyacetic acid] | 0% | 0% |  |  |  | 100% |  |  | <150 mg/kg |
| CCC1(OC(=O)COc2ccc(C)cc2)C(=O)OCc2c1cc1n(c2=O)Cc2cc3ccccc3nc2-1 (stereo not shown) [Example 000518, Camptothecin-20-O-ester of 4-methylphenoxyacetic acid] | 0% | 0% |  |  | <150 mg/kg | 97.31% |  |  |  |
| CCC1(OC(=O)COc2ccc3c(c2)CC[C@@H]2[C@@H]3CC[C@]3(C)C(=O)CC[C@@H]23)C(=O)OCc2c1cc1n(c2=O)Cc2cc3ccccc3nc2-1 (stereo partly shown) [Example 000531, Camptothecin-20-O-ester of estra-1,3,5(10)-trien-17-one-3-oxyacetic acid] | 0% | 0% |  |  |  | 81.45% |  |  | >150 mg/kg |
| CCC1(OC(=O)COc2c(Cl)cc(F)cc2Cl)C(=O)OCc2c1cc1n(c2=O)Cc2cc3ccccc3nc2-1 (stereo not shown) [Example 000602, Camptothecin-20-O-ester of 2,6-dichloro-4-fluorophenoxyacetic acid] | 0% | 0% |  |  | >150 mg/kg | 74.00% |  |  |  |
| CCC1(OC(=O)COc2ccc([N+](=O)[O-])c(C(F)(F)F)c2)C(=O)OCc2c1cc1n(c2=O)Cc2cc3ccccc3nc2-1 (stereo not shown) [Example 000605, Camptothecin-20-O-ester of 4-nitro-3-trifuoromethylphenoxyacetic acid] | 0% | 0% |  |  | >150 mg/kg | 88.00% |  |  |  |
| CC[C@@]1(OC(=O)COc2ccc(C)nc2I)C(=O)OCc2c1cc1n(c2=O)Cc2cc3ccccc3nc2-1 [Example 000616, Camptotheci-20-O-ester of 6-iodo-2-methylpyridine-5-oxyacetic acid] | 0% | 0% |  |  | >150 mg/kg | 84.85% |  |  |  |
| CCC1(OC(=O)COc2ccc(C(=O)O)cc2)C(=O)OCc2c1cc1n(c2=O)Cc2cc3ccccc3nc2-1 (stereo not shown) [Example 000725, Camptothecin-20-O-ester of 4-carboxyphenoxyacetic acid] | 0% | 0% |  |  | >150 mg/kg | 100% |  |  |  |
| CC[C@@]1(OC(=O)COc2nc3ccccc3s2)C(=O)OCc2c1cc1n(c2=O)Cc2cc3ccccc3nc2-1 [Example 000727, Camptothecin-20-O-ester of benzothiazole-2-oxyacetic acid] | 0% | 0% |  |  |  | 96.81% |  |  |  |
| CCC1(OC(=O)COc2ccc(C#N)c(F)c2)C(=O)OCc2c1cc1n(c2=O)Cc2cc3ccccc3nc2-1 (stereo not shown) [Example 001030, Camptothecin-20-O-ester of 4-cyano-3-fluorophenoxyacetic acid] | 0% |  |  |  |  | 86.90% |  |  |  |
| Camptothecin-20-O-ester of ethylexyacetic acid [Example 000627] | 0% | 0% |  |  | <150 mg/kg | 70.44% |  |  |  |
